Experimental data published in patent US10792282B2, “Protein kinase C inhibitors and uses thereof” (Rigel Pharmaceuticals, Inc., priority 2013, dated 2020).
Where two headings read alike, the source gives them in different places.

Test system: PKC mediated IL-2 production
Test: IL-2 ELISA, human primary T cell, anti CD3+CD28+ (whole cell functional assay)
Format: cell-based
Protocol: Human primary T cells were prepared as follows. Fresh PBMC's from All Cells (Cat # PB002) were re-suspended in RPMI (RPMI-1640 with L-Glutamine; Mediatech, Inc., Herndon Va., cat. #10-040-CM) with 10% FBS and seeded into flasks and incubated at 37° C. for 2 hours to allow the monocytes to adhere. The non-adherent cells were then centrifuged and re-suspended in RPMI medium containing 40 U/ml IL2 and seeded into a flask pre-coated with 1 μg/ml aCD3 and 5 ug/ml aCD28 (Anti-Human CD3, BD Pharmingen Catalog #555336, Anti-Human CD28, Beckman Coulter Catalog # IM1376). The cells were stimulated for 3-4 days, then transferred to a fresh flask and maintained in RPMI (RPMI-1640 with L-Glutamine; Mediatech, Inc., Herndon Va., cat. #10-040-CM) with 10% FBS and 40 U/ml IL-2.
(§1) Human primary T cells (100,000 cells per well) were pre-incubated with or without test compound in RPMI-1640 with L-Glutamine and 10% FBS for 1 hour at 37° C. Cells were then stimulated by transferring them to round-bottom 96-well plates pre-coated with 1 μg/ml αCD3 and 5 μg/ml αCD28. For counter assay, cells were instead stimulated by adding 8× stock solutions of PMA and ionomycin in RPMI-1640 with L-Glutamine and 10% FBS (for final concentrations of 0.5 ng/ml PMA and 0.1 μM ionomycin, both from Calbiochem). Cells were incubated at 37° C. for 24 hours before 100 μL supernatants were harvested for quantification of IL-2 by ELISA using Human IL-2 Duoset ELISA Kit from R and D Systems, Cat. # DY202E.
Compounds 1-90 were tested in a whole cell functional assay for PKC mediated IL-2 production as follows. Human primary T cell isolation and culture: Human primary T cells were prepared as follows. Whole blood was obtained from a healthy volunteer, mixed 1:1 with PBS, layered on to Ficoll Hypaque (Amersham Pharmacia Biotech, Piscataway, N.J., Catalog #17-1440-03) in 2:1 blood/PBS:ficoll ratio and centrifuged for 30 minutes at 4° C. at 1750 rpm. The cells at the serum: ficoll interface were recovered and washed twice with 5 volumes of PBS. These freshly isolated human peripheral blood mononuclear cells were cultured in Yssel's medium containing 40 U/ml IL2 in a flask pre-coated with 1 μg/ml αCD3 and 5 μg/ml αCD28 (Anti-Human CD3, BD Pharmingen Catalog #555336, Anti-Human CD28, Beckman Coulter Catalog # IM1376). The cells were stimulated for 3-4 days, then transferred to a fresh flask and maintained in RPMI (RPMI-1640 with L-Glutamine; Mediatech, Inc., Herndon Va., cat. #10-040-CM) with 10% FBS and 40 U/ml IL-2. The primary T-cells were then washed twice with PBS to remove the IL-2.
as §1, with “Primary T cell stimulation and IL2 ELISA: Human primary” for “Human primary”, “compound in Yssel's medium for 1” for “compound in RPMI-1640 with L-Glutamine and 10% FBS for 1”, “ionomycin in Yssels (for final” for “ionomycin in RPMI-1640 with L-Glutamine and 10% FBS (for final”, “and 0.1 uM ionomycin, both” for “and 0.1 μM ionomycin, both”

[1] = IL-2 production, human primary T cells stimulated with αCD3 and αCD28, 24 hours, IL-2 by ELISA, read-out: EC50
[2] = Homo sapiens, T-cell, 24 h, IL-2 production, human primary T cells stimulated with αCD3 and αCD28, 24 hours, IL-2 by ELISA, read-out: EC50
[3] = Homo sapiens, T-cell, human primary T cells stimulated with αCD3 and αCD28, IL-2 by ELISA, read-out: EC50 (blocked IL-2 production)

SMILES | EC50 [1] [µM] | EC50 [2] [µM] | EC50 [3] [µM]
CC(C)N1CCC(Oc2ccc(Nc3ncc(F)c(NC4CC5CCCN5C(C)(C)C4)n3)cc2OC(F)F)CC1 (stereo not drawn) [Compound 10, (R/S, S/R, R/R, S/S)—N^2-(4-(1-isopropylpiperidin-4-yloxy)-3-(difluoromethoxy)phenyl)-5-fluoro-N^4-(octahydro-5,5-dimethylindolizin-7-yl)pyrimidine-2,4-diamine] | < 0.5 |  | 
COc1cc(F)c(Nc2ncc(F)c(N[C@@H]3C[C@@H]4CCCN4C(C)(C)C3)n2)cc1-n1nnn(C)c1=O [Compound 22, 1-(5-(4-((7R,8aS)-5,5-dimethyl-octahydroindolizin-7-ylamino)-5-fluoropyrimidin-2-ylamino)-4-fluoro-2-methoxyphenyl)-4-methyl-1H-tetrazol-5(4H)-one] |  | < 0.5 | < 10
Cn1nnn(-c2cc(Nc3ncc(F)c(N[C@@H]4CCN5C(CCC5(C)C)C4)n3)c(F)cc2C2CC2)c1=O (mixture of isomers) [Compound 25] | < 10 |  | 
CC1(C)Oc2ccc(Nc3ncc(F)c(NC4CC5CCCN5C(C)(C)C4)n3)cc2-n2nnnc21 (stereo not drawn) [Compound 4, N2-(4,4-dimethyl-4H-benzo[b]tetrazolo[1,5-d][1,4]oxazin-8-yl)-5-fluoro-N4-(octahydro-5,5-dimethylindolizin-7-amine)pyrimidine-2,4-diamine] | < 10 |  | 
Cn1nnn(-c2cc(Nc3ncc(F)c(NC4CC(=O)N5C(CCC5(C)C)C4)n3)c(F)cc2C2CC2)c1=O (stereo not drawn) [Compound 30] |  | > 10 | < 10
COc1cc(Nc2ncc(F)c(NC3CC4CCCN4C(C)(C)C3)n2)cc(-n2nnnc2C)c1 (stereo not drawn) [Compound 11, (R/S, S/R, R/R, S/S)-5-fluoro-N4-(octahydro-5,5-dimethylindolizin-7-yl)N2-(3-methoxy-5-(5-methyl-1H-tetrazol-1-yl)phenyl)pyrimidine-2,4-diamine] | < 10 |  | 
Cn1nnn(-c2cc(Nc3ncc(F)c(NC4CCN5CCCC5C4)n3)c(F)cc2C2CC2)c1=O (racemic) [Compound 27, (±)-1-(5-(5-fluoro-4-(octahydroindolizin-7-ylamino)pyrimidin-2-ylamino)-2-cyclopropyl-4-fluorophenyl)-4-methyl-1H-tetrazol-5(4H)one] |  | < 10 | < 10
Cn1nnn(-c2cc(Nc3ncc(F)c(N[C@H]4C[C@H]5CCCN5C(C)(C)C4)n3)c(F)cc2C2CC2)c1=O [Compound 18, 1-(5-(4-((7S,8aR)-octahydro-5,5-dimethylindolizin-7ylamino)-5-fluoropyrimidin-2-ylamino)-2-cyclopropyl-4-fluorophenyl)-4-methyl-1H-tetrazol-5(4H)-one] |  | < 1 | < 10
Cn1nnn(-c2cc(Nc3ncc(F)c(NC4CC5CCCN5C(C)(C)C4)n3)ccc2OC2COC2)c1=O (racemic) [Compound 38, 1-(5-(5-fluoro-4-(octahydro-5,5-dimethylindolizin-7-ylamino)pyrimidin-2-ylamino)-2-(oxetan-3-yloxy)phenyl)-4-methyl-1H-tetrazol-5(4H)-one] | < 0.5 |  | 

The next lines start with the values.

EC50 [1] [µM] | EC50 [2] [µM] | EC50 [3] [µM] | SMILES
 | < 0.1 | < 10 | Cn1nnn(-c2cc(Nc3ncc(F)c(N[C@@H]4C[C@@H]5CCCN5C(C)(C)C4)n3)ccc2O[C@H]2CCOC2)c1=O [Compound 50, 1-(2-((S)-tetrahydrofuran-3-yloxy)-5-(5-fluoro-4-(octahydro-5,5-dimethylindolizin-7-ylamino)pyrimidin-2-ylamino)phenyl)-4-methyl-1H-tetrazol-5(4H)-one]
 | < 0.1 | < 10 | CC1(C)C[C@H](Nc2nc(Nc3cc(-n4cnnn4)c(C4CC4)cc3F)ncc2C#N)C[C@@H]2CCCN21 (racemic) [Compound 56, (±)-2-(4-cyclopropyl-2-fluoro-5-(1H-tetrazol-1-yl)phenylamino)-4-(octahydro-5,5-dimethylindolizin-7-ylamino)pyrimidine-5-carbonitrile]
 |  | < 10 | CC1(C)C[C@H](Nc2nc(Nc3cc(-n4cnnn4)c(C4CC4)cc3F)ncc2F)C[C@@H]2CCCN21 (racemic) [Compound 53, (±)-N2-(4-cyclopropyl-2-fluoro-5-(1H-tetrazol-1-yl)phenyl)-5-fluoro-n^4-(octahydro-5,5-dimethylindolizin-7-yl)pyrimidine-2,4-diamine]
 | < 0.5 | < 10 | Cn1nnn(-c2cc(Nc3ncc(F)c(N[C@@H]4C[C@@H]5CCCN5C(C)(C)C4)n3)c(F)cc2OC2COC2)c1=O [Compound 88, 1-(5-(4-((7R,8aS)-octahydro-5,5-dimethylindolizin-7-ylamino)-5-fluoropyrimidin-2-ylamino)-4-fluoro-2-(oxetan-3-yloxy)phenyl)-4-methyl-1H-tetrazol-5(4H)-one]
 | < 0.1 | < 10 | C[C@H](O)COc1cc(F)c(Nc2ncc(C#N)c(N[C@@H]3C[C@@H]4CCCN4C(C)(C)C3)n2)cc1-n1nnn(C)c1=O [Compound 79, 4-((7R,8aS)-octahydro-5,5-dimethylindolizin-7-ylamino)-2-(4-((S)-2-hydroxypropoxy)-2-fluoro-5-(4,5-dihydro-4-methyl-5-oxotetrazol-1-yl)phenylamino)pyrimidine-5-carbonitrile]
< 10 |  |  | Cn1nnn(-c2cc(Nc3ncc(F)c(N[C@H]4CCN5[C@@H](CCC5(C)C)C4)n3)c(F)cc2C2CC2)c1=O (single isomer, unassigned) [Compound 37]
 | < 0.1 | < 10 | C[C@@H](O)COc1cc(F)c(Nc2ncc(C#N)c(N[C@@H]3C[C@@H]4CCCN4C(C)(C)C3)n2)cc1-n1nnn(C)c1=O [Compound 90, 4-((7R,8aS)-octahydro-5,5-dimethylindolizin-7-ylamino)-2-(4-((R)-2-hydroxypropoxy)-2-fluoro-5-(4,5-dihydro-4-methyl-5-oxotetrazol-1-yl)phenylamino)pyrimindine-5-carbonitrile]
 | < 10 | < 10 | Cn1nnn(-c2cc(Nc3ncc(F)c(N[C@H]4C[C@@H]5CCC(=O)N5C(C)(C)C4)n3)c(F)cc2C2CC2)c1=O (racemic) [Compound 32, 1-(5-(5-fluoro-4-(hexahydro-5,5-dimethylindolizin-3(5H)-one-7-ylamino)pyrimidin-2-ylamino)-2-cyclopropyl-4-fluorophenyl)-4-methyl-1H-tetrazol-5(4H)-one]
 | < 0.1 | < 10 | Cn1nnn(-c2cc(Nc3ncc(C#N)c(N[C@@H]4C[C@@H]5CCCN5C(C)(C)C4)n3)c(F)cc2OCC(C)(C)O)c1=O [Compound 80, 4-((7R,8aS)-octahydro-5,5-dimethylindolizin-7-ylamino)-2-(4-(2-hydroxy-2-methylpropoxy)-2-fluoro-5-(4,5-dihydro-4-methyl-5-oxotetrazol-1-yl)phenylamino)pyrimidine-5-carbonitrile]
 | < 10 | < 10 | Cn1nnn(-c2cc(Nc3ncc(F)c(N[C@@H]4C[C@@H]5CCC(=O)N5C(C)(C)C4)n3)c(F)cc2C2CC2)c1=O (racemic) [Compound 31, 1-(5-(5-fluoro-4-(hexahydro-5,5-dimethylindolizin-3(5H)-one-7-ylamino)pyrimidin-2-ylamino)-2-cyclopropyl-4-fluorophenyl)-4-methyl-1H-tetrazol-5(4H)-one]
 | < 10 | < 10 | Cn1nnn(-c2cc(Nc3ncc(F)c(N[C@H]4C[C@@H]5CC(F)(F)CN5C(C)(C)C4)n3)c(F)cc2C2CC2)c1=O [Compound 42, 1-(5-(4-((7S,8aR)-2,2-difluoro-octahydro-5,5-dimethylindolizin-7-ylamino)-5-fluoropyrimidin-2-ylamino)-2-cyclopropyl-4-fluorophenyl)-4-methyl-1H-tetrazol-5(4H)-one]
